Test results taken from patent US9169307B2 (The Trustees of the University of Pennsylvania, priority 2005, dated 2015).
Like-named read-outs stand apart in the source and are kept apart here. Bridges are numbered along the chain shown (N, C = ends). [ ]: non-standard residue; d: D form. Trp(5-F) = N[C@@H](Cc1c[nH]c2ccc(F)cc12)C(=O)O; Trp(6-F) = N[C@@H](Cc1c[nH]c2cc(F)ccc12)C(=O)O

Key:
[1] = tested on: activation of the complement system by immunocomplexes (C3b/iC3b deposition); assay: Complement inhibition assay (ELISA): inhibition of C3 fixation to ovalbumin-anti-ovalbumin complexes in normal human plasma; format: biochemical; settings: for complement inhibitory activity (in words): at the concentrations tested; for amount of conjugate required to achieve the same inhibition as Ac-V4(1-methyl-W)/H9A: relative to Ac-V4(1-methyl-W)/H9A (SEQ ID NO:23); for Relative activity: Table 2, relative to the activity of compstatin (SEQ ID NO: 1); for Activity over compstatin: Table 1B, exemplary analogs described herein
Protocol: Complement activation inhibition was assessed by measuring the inhibition of C3 fixation to ovalbumin-anti-ovalbumin complexes in normal human plasma. Microtiter wells were coated with 50 μl of ovalbumin (10 mg/ml) for 2 hr at 25° C. (overnight at 4° C.). The wells were saturated with 200 μl of 10 mg/ml BSA for 1 hr at 25° C. and then a rabbit anti-ovalbumin antibody was added to form an immunocomplex by which complement can be activated. Thirty microliters of peptides at various concentrations were added directly to each well followed by 30 μl of a 1:80 dilution of human plasma. After 30 min incubation, bound C3b/iC3b was detected using a goat anti-human C3 HRP-conjugated antibody. Color was developed by adding ABTS peroxidase substrate and optical density measured at 405 nm.
The % inhibition was plotted against the peptide concentration, and the resulting data set was fit to the logistic dose-response function using Origin 7.0 software. […] IC50 values were obtained from the fitted parameters that achieved the lowest chi-square value.

[2] = tested on: activation of the complement system by immunocomplexes (C3b/iC3b deposition); settings: cited from earlier work; for Activity over compstatin: Table 1A, previously described analogs (WO2004/026328)
[3] = tested on: alternative pathway-mediated erythrocyte lysis; settings: cited from earlier work
C3 = C3 (Homo sapiens, UniProt P01024); assay: Isothermal titration calorimetry of the interaction of C3 with compstatin analogs; format: binding
Protocol: Isothermal titration calorimetry experiments were performed using the Microcal VP-ITC calorimeter (Microcal Inc, Northampton, Mass.). Protein concentrations of 3.5-5 μM and peptide concentrations of 80-200 μM were used for these experiments. All titrations were performed in PBS (10 mM phosphate buffer with 150 mM NaCl, pH 7.4). In each experiment, the target protein, C3, was loaded into the cell, and peptide was loaded into the syringe. All experiments were performed at 25° C. and for each experiment, 2-μl peptide injections were made into the cell containing the protein. In each experiment, the raw isotherms were corrected for the heats of dilution by subtracting the isotherms representing peptide injections into the buffer. The resulting isotherms were fit to various models within the Origin 7.0 software, and the model that achieved the lowest chi square value was deemed to be appropriate for the respective dataset. Binding affinity and entropy values were plotted against log P values.

[4] = relative to Ac-V4W/H9A (SEQ ID NO:5)

C3, sequence (P01024 23-1663): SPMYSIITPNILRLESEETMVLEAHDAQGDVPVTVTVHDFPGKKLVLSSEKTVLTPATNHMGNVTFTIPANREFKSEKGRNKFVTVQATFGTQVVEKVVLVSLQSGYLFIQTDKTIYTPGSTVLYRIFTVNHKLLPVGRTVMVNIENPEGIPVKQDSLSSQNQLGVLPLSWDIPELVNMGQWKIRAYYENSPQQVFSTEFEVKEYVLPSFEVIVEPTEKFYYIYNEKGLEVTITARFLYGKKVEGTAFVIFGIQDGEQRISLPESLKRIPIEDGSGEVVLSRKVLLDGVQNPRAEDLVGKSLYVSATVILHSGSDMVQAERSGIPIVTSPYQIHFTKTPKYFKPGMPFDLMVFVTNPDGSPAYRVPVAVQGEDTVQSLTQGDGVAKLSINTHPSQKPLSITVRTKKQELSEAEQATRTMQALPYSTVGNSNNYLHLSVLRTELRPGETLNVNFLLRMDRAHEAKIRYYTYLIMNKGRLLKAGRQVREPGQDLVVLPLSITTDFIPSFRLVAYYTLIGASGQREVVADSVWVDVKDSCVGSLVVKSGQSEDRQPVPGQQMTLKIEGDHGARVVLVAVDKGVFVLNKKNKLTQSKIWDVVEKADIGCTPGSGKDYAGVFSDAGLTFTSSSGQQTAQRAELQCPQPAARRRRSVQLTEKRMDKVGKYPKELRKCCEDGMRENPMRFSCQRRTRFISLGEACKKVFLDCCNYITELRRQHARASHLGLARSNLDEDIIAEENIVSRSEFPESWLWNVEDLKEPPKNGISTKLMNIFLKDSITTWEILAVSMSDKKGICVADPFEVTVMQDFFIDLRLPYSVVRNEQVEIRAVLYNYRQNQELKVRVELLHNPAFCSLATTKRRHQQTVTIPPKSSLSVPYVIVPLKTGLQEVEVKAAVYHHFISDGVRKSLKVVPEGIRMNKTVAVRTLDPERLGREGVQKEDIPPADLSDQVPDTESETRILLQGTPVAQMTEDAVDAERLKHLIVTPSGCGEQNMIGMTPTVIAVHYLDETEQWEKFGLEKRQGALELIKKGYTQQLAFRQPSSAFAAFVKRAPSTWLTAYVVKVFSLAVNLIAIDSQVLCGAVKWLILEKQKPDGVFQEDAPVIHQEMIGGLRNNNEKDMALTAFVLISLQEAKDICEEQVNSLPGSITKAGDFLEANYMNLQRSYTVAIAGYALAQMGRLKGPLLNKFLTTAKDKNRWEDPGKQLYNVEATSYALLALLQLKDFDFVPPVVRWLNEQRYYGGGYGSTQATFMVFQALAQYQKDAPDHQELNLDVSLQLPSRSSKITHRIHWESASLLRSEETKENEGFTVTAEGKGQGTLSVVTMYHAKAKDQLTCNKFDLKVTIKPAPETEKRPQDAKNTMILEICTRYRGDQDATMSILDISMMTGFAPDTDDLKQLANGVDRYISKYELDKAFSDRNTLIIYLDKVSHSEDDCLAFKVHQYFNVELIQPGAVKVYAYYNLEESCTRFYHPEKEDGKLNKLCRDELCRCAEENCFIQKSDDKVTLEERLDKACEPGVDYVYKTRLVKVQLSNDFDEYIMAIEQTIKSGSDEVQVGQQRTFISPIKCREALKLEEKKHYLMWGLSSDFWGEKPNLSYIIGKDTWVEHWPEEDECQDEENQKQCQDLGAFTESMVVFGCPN

With “Ac-V4(1-methyl-W)/H9A-K-PEG 5000: Ac-V4(1-methyl-W)/H9A with C-terminal lysine whose side chain is linked to PEG 5000 (ICVWQDWGAHRCTK; N-acetyl; 1-methyl-Trp at 4; C-terminal Lys-PEG5000)” the “complement inhibitory activity (in words)” value [1] was “active in inhibiting complement activation” and the “amount of conjugate required to achieve the same inhibition as Ac-V4(1-methyl-W)/H9A” value [1] was “seven-fold more conjugate was required”.

For “Ac-ICV(Bpa)QDWGAHRCT-COOH [Ac-V4(Bpa)/H9A −OH]”, the Activity over compstatin [2] is given as 49 × more and the “fold greater activity than compstatin” value ([2]; analogs disclosed in WO2004/026328) is given as 49 fold.

In the case of “Ac-ICV(2-Igl)QDWGAHRCT-COOH [Ac-V4Igl/H9A −OH]”, the Activity over compstatin [2] is listed as 37 × more.

For “Ac-ICV(1-Nal)QDWGAHRCT-COOH [Ac V4(1-Nal)/H9A −OH]”, the Activity over compstatin [2] is listed as 30 × more.

In the case of “Ac-ICVYQDWGAHRCT-CONH2 (Ac-ICVYQDWGAHRCT-NH2; disulfide 2-12 (inferred)) [Ac-V4Y/H9A]”, the Activity over compstatin [2] is listed as 19 × more.

For “Ac-ICV(2-Igl)QDWGAHRCT-CONH2 [Ac-V4Igl/H9A]”, the Activity over compstatin [2] is listed as 39 × more.

For `CC[C@H](C)[C@H](N)C(=O)N[C@H]1CSSC[C@@H](C(=O)N[C@H](C(N)=O)[C@@H](C)O)NC(=O)[C@H](CCCN=C(N)N)NC(=O)[C@H](Cc2cnc[nH]2)NC(=O)[C@H](Cc2cnc[nH]2)NC(=O)CNC(=O)[C@H](Cc2c[nH]c3ccccc23)NC(=O)[C@H](CC(=O)O)NC(=O)[C@H](CCC(N)=O)NC(=O)[C@H](C(C)C)NC(=O)[C@H](C(C)C)NC1=O` [Compstatin], the IC50 [3] is listed as 12000 nM.

With “GICVWQDWGAHRCTN [G(−1)/V4(5-OH-W)/W7(5-OH-W)/H9A/N14]” the IC50 ([1]; Table 2, expressed peptides) was 33000 nM, the Relative activity [1] was 1.6 and the “fold loss in activity / times less active compared to Ac-V4W/H9A” value [1, 4] was 27.5 fold.

In the case of `CC[C@H](C)[C@H](NC(C)=O)C(=O)N[C@H]1CSSC[C@@H](C(=O)N[C@H](C(N)=O)[C@@H](C)O)NC(=O)[C@H](CCCNC(=N)N)NC(=O)[C@H](Cc2c[nH]cn2)NC(=O)[C@H](C)NC(=O)CNC(=O)[C@H](Cc2c[nH]c3ccccc23)NC(=O)[C@H](CC(=O)O)NC(=O)[C@H](CCC(N)=O)NC(=O)[C@H](Cc2ccc3ccccc3c2)NC(=O)[C@H](C(C)C)NC1=O` [Ac-V4(2-Nal)/H9A], the ΔG (C3; Table 6, ITC, 25° C.) is reported as -9.5 kcal/mol, the “−TΔS” value (C3; Table 6, ITC, 25° C.) is reported as 4.8 kcal/mol and the ΔΔG (C3; Table 6, relative to Wild-type) is reported as -0.1 kcal/mol. For the same compound, the ΔΔH (C3; Table 6, relative to Wild-type) was 3.87 kcal/mol, the “−TΔΔS” value (C3; Table 6, relative to Wild-type) was -3.99 kcal/mol and the Activity over compstatin [2] was 99 × more. It also gave an IC50 ([1]; Table 5) of 545 nM.

Work on “H-GICV(5f-l-W)QD(5f-l-W)GAHRCTN-COOH (H-GICV[Trp(5-F)]QD[Trp(5-F)]GAHRCTN-OH; disulfide 3-13 (inferred)) [G(−1)/V4(5fW)/W7(5fW)/H9A/N14, bacterially expressed compstatin analog]” yielded an Activity over compstatin [1] of 112 × more, an IC50 ([1]; Table 2, expressed peptides) of 480 nM and a Relative activity [1] of 112. The “fold higher activity than Ac-V4W/H9A” value [1, 4] was 2.5 fold.

For Ac-ICVVQDWGHHRCT-CONH2 [Ac-compstatin], the Activity over compstatin [2] is listed as 3 × more.

With “H-GICV(6f-l-W)QD(6f-l-W)GAHRCTN-COOH (H-GICV[Trp(6-F)]QD[Trp(6-F)]GAHRCTN-OH; disulfide 3-13 (inferred)) [G(−1)/V4(6fW)/W7(6fW)/H9A/N14, bacterially expressed compstatin analog]” the Activity over compstatin [1] was 126 × more, the IC50 ([1]; Table 2, expressed peptides) was 430 nM and the Relative activity [1] was 126. For the same compound, the “fold higher activity than Ac-V4W/H9A” value [1, 4] was 2.8 fold.

In the case of “Ac-ICV(1MeW)QDWGAHRCTRLIEDICLPRWGCLWEDD-NH2 [Albumin-binding peptide-compstatin]”, the “complement inhibitory activity (in words)” value [1] is reported as “active in inhibiting complement activation” and the “amount of conjugate required to achieve the same inhibition as Ac-V4(1-methyl-W)/H9A” value [1] is reported as “seven-fold more conjugate was required”.

“GICVWQDWGAHRCTN [G(−1)/V4W/H9A/N14, bacterially expressed compstatin analog]” showed an Activity over compstatin [1] of 45 × more, an IC50 ([1]; Table 2, expressed peptides) of 1200 nM and a Relative activity [1] of 45.

In the case of “Ac-ICVDhtQDWGAHRCT-COOH [Ac-V4Dht/H9A −OH]”, the Activity over compstatin [2] is given as 5 × more.

In the case of “Ac-ICV(2-Nal)QDWGAHRCT-COOH [Ac V4(2-Nal)/H9A −OH]”, the Activity over compstatin [2] is listed as 39 × more.
